Tests used:
[1] = tested on: MDA-MB-231/HER2 cells; test: In vitro association study (flow cytometry, Cy5), MDA-MB-231/HER2; format: cell-based, human; details: for cellular association value (DFO/Cy5 BHA dendrimers; quantity not named, table stands under 'Percent of cellular association'): MDA-MB-231/HER2, 0.5 h
Description: (§1) MDA-MB-231, MDA-MB-231/HER2 (HER2 knock in) (as described above), or SKOV-3 cells were seeded in a 24-well plate (1×10^5 cells per well) in 500 μL of appropriate growth media with the addition of 10% (v/v) fetal bovine serum (FBS) and incubated with compound 36 or 41 at 3.33 nM, […] atmosphere. After incubation, non-binding/non-associating particles were removed from adherent cells by gently washing with DPBS three times (300 μL/well). Cells were removed from plates by treatment with TrypLE™ Express Enzyme (1×), no phenol red (150 μL/well) for 5-10 min at room temperature. The plates were then placed on ice. Cellular binding and association of sample were then determined through flow cytometry by the acquisition of the signal from Cy5.

[2] = tested on: MDA-MB-453 cells; test: Cell association by flow cytometry (Cy5), MDA-MB-453; format: cell-based, human; details: for Mean Fluorescence Intensity (Cy5), MFI: MDA-MB-453, 1 hour on ice, triplicate wells; for binding to HER2-positive MDA-MB-453 cells: result in words
Description: The HER2-expressing human metastatic carcinoma cell line MDA-MB-453 (ATCC HTB-131) and the HER2-negative epithelial adenocarcinoma cell line MDA-MB-231 (ATCC HTB-26) were maintained in Dulbecco's Modified Eagle's Medium (DMEM) containing 10% FBS and penicillin-streptomycin (100 U/mL) at 37° C. under a 5% CO2 humidified atmosphere and subcultured prior to confluence using trypsin. Human adenocarcinoma ovary cell line SKOV-3 (ATCC® HTB-77) cells were maintained in RPMI media with the addition of 10% (v/v) FBS and penicillin-streptomycin (100 U/mL) at 37° C. in a 5% CO2 humidified atmosphere and subcultured prior to confluence.
For measurement of cell association by flow cytometry, cells in suspension were added at 1×10^5 cells per well to a 96 well assay plate. Following incubation with nanobody-dendrimer or unconjugated dendrimer for 1 hour on ice, cells were washed three times with 200 ul of DMEM containing 10% FBS to remove unbound dendrimer. Cells were then resuspended in chilled Fluorobrite media supplemented with 10% FBS and Cy5 fluorescence measured using 642 nm excitation and emission collected between 661-691 nm. To measure internalisation kinetics, nanobody-dendrimer was incubated with cells for 24, 4, 1, 0.5 and 0.1 hours at 37° C. before unbound nanobody-dendrimer was removed by washing and analysed by flow cytometry.

[3] = tested on: MDA-MB-231 cells; test: In vitro association study (flow cytometry, Cy5), MDA-MB-231; format: cell-based, human; details: for cellular association value (DFO/Cy5 BHA dendrimers; quantity not named, table stands under 'Percent of cellular association'): MDA-MB-231, 0.5 h
Description: as §1

[4] = molecular target: T1, ErbB2-ECD (Homo sapiens, UniProt P04626); test: SPR binding to immobilized ErbB2-ECD; details: result in words
T1 construct: Direct Immobilization of ErbB2-ECD
Description: Using a ProteOn XPR36 instrument, ErbB2-ECD was immobilized at 25° C. onto a GLC sensor chip surface (Bio-Rad), with HBS-P+ running buffer (10 mM HEPES, pH 7.4, 150 mM NaCl, 0.05% Tween 20). Standard amine coupling methodology described in Bio-Rad's amine coupling kit was utilized for this immobilization. Lane 1 was activated with a 50:50 mixture of EDC (0.5 mM) and sulfo-NHS (0.125 mM). ErbB2 protein was diluted to […] in 10 mM sodium acetate, pH 5.0 and injected over the activated surface channel. Any remaining activated sites were blocked with 1 M ethanolamine-HCl, pH 8.5.
All SPR binding experiments were performed at 25° C. using HBS-EP+/BSA (10 mM HEPES, pH 7.4, 150 mM NaCl, 3 mM EDTA, 0.05% Tween20, 0.1 mg/ml BSA) as the instrument running buffer (RB). Following immobilization procedures, various concentrations of anti-ErbB2 affibodies and their MMAE-dendrimer conjugates were injected at 60 μl/min over immobilized ErbB2 proteins and their association monitored for 90 sec. Running buffer was subsequently injected over bound Ab-ErbB2 complexes and dissociation monitored for up to 60 min. […] All binding measurements were performed in triplicate.
Collected experimental data were processed using Scrubber-Pro software (www.biologic.com.au). […]

[5] = tested on: MDA-MB-231/HER2 (HER2 knock in) cells; test: In vitro association study of G5 cabazitaxel dendrimers, MDA-MB-231/HER2; format: cell-based, human; details: MDA-MB-231/HER2, 3.33 nM
Description: (§2) MDA-MB-231, MDA-MB-231/HER2 (HER2 knock in), or SKOV-3 cells were seeded in a 24-well plate (1×10^5 cells per well) in 500 μL of appropriate growth media with the addition of 10% (v/v) fetal bovine serum (FBS) and 1% (v/v) penicillin-streptomycin, and incubated with compound 70 (G5, PEG1000, CTX) or 78 (2D3, G5, PEG1000, CTX) at 3.33 nM, with incubation time varied from 1 to 24 h at 37° C. in a 5% CO2 humidified atmosphere. After incubation, non-binding/non-associating particles were removed from adherent cells by gently washing with DPBS three times (300 μL/well). Cells were removed from plates by treatment with TrypLE™ Express Enzyme (1×), no phenol red (150 μL/well) for 5-10 min at room temperature. The plates were then placed on ice. Cellular binding and association of sample were then determined through flow cytometry by the acquisition of the signal from Cy5.

[6] = tested on: MDA-MB-231 cells; test: In vitro association study of G5 cabazitaxel dendrimers, MDA-MB-231; format: cell-based, human; details: MDA-MB-231, 3.33 nM
Description: as §2

[7] = tested on: SKOV-3 cells; test: In vitro association study of G5 cabazitaxel dendrimers, SKOV-3; format: cell-based, human; details: SKOV-3, 3.33 nM
Description: as §2

Substance | Mean fluorescence intensity ([1]; MDA-MB-231/HER2, 1 h) | Mean fluorescence intensity ([1]; MDA-MB-231/HER2, 2 h) | Mean fluorescence intensity ([1]; MDA-MB-231/HER2, 4 h) | Mean fluorescence intensity ([1]; MDA-MB-231/HER2, 24 h) | Mean Fluorescence Intensity (Cy5), MFI [2] | binding to HER2-positive MDA-MB-453 cells [2] | Mean fluorescence intensity ([3]; MDA-MB-231, 1 h) | Mean fluorescence intensity ([3]; MDA-MB-231, 2 h) | Mean fluorescence intensity ([3]; MDA-MB-231, 4 h) | Mean fluorescence intensity ([3]; MDA-MB-231, 24 h) | cellular association value (DFO/Cy5 BHA dendrimers; quantity not named, table stands under 'Percent of cellular association') [1] | cellular association value (DFO/Cy5 BHA dendrimers; quantity not named, table stands under 'Percent of cellular association') [3] | other results
(MeTzPh)PEG4CO-NHPEG24CO—[N(PN)2][Lys]8[((α-NHCy5)1(α-NHAc)7)(ε-NH-COPEG1100)8] [Compound 37] | 293.0 ± 8.5 | 268.0 ± 11.3 | 241.5 ± 17.7 | 206.0 ± 2.8 | 3.097 ± 0.01 | did not bind | 258.3 ± 19.6 | 256.7 ± 24.8 | 221.3 ± 3.5 | 215.3 ± 4.9 |  |  | Percent of cellular association ([1]; MDA-MB-231/HER2, 1 h): 2.47 ± 0.81%; Percent of cellular association ([3]; MDA-MB-231, 1 h): 1.10 ± 0.35%; Percent of cellular association ([3]; MDA-MB-231, 2 h): 1.23 ± 0.47%
(MeTzPh)PEG4CO-NHPEG24CO—[N(PN)2][Lys]16[((α-NHCy5)1(α-NHAc)15)(ε-NH-COPEG1100)16] [Compound 38] | 269.0 ± 19.8 | 225.0 ± 5.7 | 198.0 ± 2.8 | 175.5 ± 0.7 | 6.827 ± 0.07 | did not bind | 239.3 ± 1.2 | 230.7 ± 2.3 | 217.3 ± 3.2 | 195.7 ± 0.6 |  |  | Percent of cellular association ([1]; MDA-MB-231/HER2, 1 h): 0.90 ± 0.35%; Percent of cellular association ([1]; MDA-MB-231/HER2, 2 h): 0.50 ± 0.10%; Percent of cellular association ([1]; MDA-MB-231/HER2, 4 h): 0.50 ± 0.35%; Percent of cellular association ([1]; MDA-MB-231/HER2, 24 h): 0.37 ± 0.15%
(MeTzPh)PEG4CO-NHPEG24CO—[N(PN)2][Lys]32[((α-NHCy5)1(α-NHAc)31)(ε-NH-COPEG1100)32] [Compound 39] | 257.5 ± 12.0 | 249.0 ± 15.6 | 207.0 ± 2.8 | 207.5 ± 40.3 | 4.349 ± 0.08 | did not bind | 252.0 ± 6.0 | 249.0 ± 8.7 | 247.3 ± 7.2 | 196.3 ± 3.1 |  |  | Percent of cellular association ([1]; MDA-MB-231/HER2, 4 h): 0.47 ± 0.21%; Percent of cellular association ([3]; MDA-MB-231, 1 h): 0.97 ± 0.12%
Azido-PEG24CO—[N(PN)2[Lys]8[(α-NH-Glu-Val-Cit-PAB-MMAE)8(ε-NH-COPEG2000)8] [Compound 21] |  |  |  |  |  |  |  |  |  |  |  |  | binding to ErbB2 [4]: No binding
Azido-PEG24CO—[N(PN)2][Lys]8[(α-NH-Glu-Val-Cit-PAB-MMAE)8(ε-NH-COPEG1100)8] [Compound 20] |  |  |  |  |  |  |  |  |  |  |  |  | binding to ErbB2 [4]: No binding
BHALys[Lys]2[Lys]4[((α-NH-COPEG24NH-COPEG4(PhTzMe/TCO-PEG3NH-COPEG24NH-Glu-DBCO))1(α-Lys(α-NHCy5)(ε-NHDFO))1(α-NH2)2)(ε-NH-COPEG1000)4] [Compound 82] |  |  |  |  |  |  |  |  |  |  | 14.83 ± 1.60 | 23.3 ± 3.98 | 
BHALys[Lys]2[Lys]4[Lys]8[((α-NH-COPEG24NH-COPEG4(PhTzMe)/TCO-PEG3NH-COPEG24NH-Glu-DBCO)1(α-Lys(α-NHCy5)(ε-NHDFO))1(α-NH2)6)(ε-NH-COPEG1000)8] [Compound 83] |  |  |  |  |  |  |  |  |  |  | 43.23 ± 3.48 | 42.8 ± 2.78 | 
BHALys[Lys]2[Lys]4[Lys]8[Lys]16[((α-NH-COPEG24NH-COPEG4(PhTzMe)/TCO-PEG3NH-COPEG24NH-Glu-DBCO)1(α-Lys(α-NHCy5)(ε-NHDFO))1(α-NH2)14)(ε-NH-COPEG1000)16] [Compound 84] |  |  |  |  |  |  |  |  |  |  | 16.7 ± 2.48 | 20.23 ± 0.63 | 
BHALys[Lys]2[Lys]4[Lys]8[Lys]16[Lys]32[((α-NH-COPEG24NH-COPEG4(PhTzMe)/TCO-PEG3NH-COPEG24NH-Glu-DBCO)1(α-Lys(α-NHCy5)(ε-NHDFO))1(α-NH2)30)(ε-NH-COPEG1000)32] [Compound 85] |  |  |  |  |  |  |  |  |  |  | 25.6 ± 0.43 | 33.23 ± 2.2 | 
BHA[Lys]32[((α-NH-COPEG24NH-COPEG4(PhMeTz))1-4(α-NHCy5)1(α-NH-COPEG9-Val-Ala-PAB-P-Trigger-NMeCO-CTX)22) (α-NH2)5-8(ε-NH-COPEG1100)32] [Compound 70] |  |  |  |  |  |  |  |  |  |  |  |  | Mean fluorescence intensity (MFI) ([5]; 1 h): 0.77 ± 0.06; Mean fluorescence intensity (MFI) ([5]; 3 h): 7.72 ± 4.17; Mean fluorescence intensity (MFI) ([5]; 6 h): 5.82 ± 0.07; Mean fluorescence intensity (MFI) ([5]; 24 h): 12.4±0.64; binding over 24 h ([5]; in words): minimal binding; Mean fluorescence intensity (MFI) ([6]; 1 h): 1.00 ± 0.14; Mean fluorescence intensity (MFI) ([6]; 3 h): 4.10 ± 0.71; Mean fluorescence intensity (MFI) ([6]; 6 h): 5.65 ± 0.64; Mean fluorescence intensity (MFI) ([6]; 24 h): 13.4 ± 0.07; binding over 24 h ([6]; in words): minimal binding; Mean fluorescence intensity (MFI) ([7]; 1 h): 1.00 ± 0.29; Mean fluorescence intensity (MFI) ([7]; 3 h): 3.46 ± 0.69; Mean fluorescence intensity (MFI) ([7]; 6 h): 3.90 ± 0.10; Mean fluorescence intensity (MFI) ([7]; 24 h): 11.4±0.42; binding over 24 h ([7]; in words): minimal binding
